The results in this text go back to patent US9650423B2, “Long peptides of 22-45 amino acid residues that induce and/or enhance antigen specific immune responses” (priority 2000, dated 2017).

Read-outs that look alike come from different tables or passages of the source. Residues, ends and D or L forms follow the SMILES beside them. No end group written: not given here.

The target of one test is HLA-DR4 (DRB*0401). Nature of the test: HLA-DR-peptide binding assay. Also on record: species or system human.
The target in another test is HLA-DR2 (DRB1*0201). Put plainly: HLA-DR-peptide binding assay. Also noted: species or system human.
Another test deals with T1, HLA-DR1 (DRB*0101) (Homo sapiens, UniProt P01903+P01911, A100R/D57E/F55L/F60I/F76Y/I96L/L162R/M171V/P40L/Q125E/R42F/V115G/Y59C).
T1 construct: endogenous in cells; host or cells: LG2.1 B-lymphoblastic cell line, homozygous for HLA-DR
Put plainly: biochemical. The test is classed as binding.

The next test concerns healthy donor PBMC. Type of test: cell-based, human. The conditions noted are these: for mean percentage of wells exceeding medium control + 3 * SD: 10 μg/ml, day 6, two assays.
Another test addresses HLA-DR3 (DRB*0301). Put plainly: HLA-DR-peptide binding assay. Also noted: species or system human.
The subject of test [1] is HPV16 E7-specific T-helper clones. Nature of the test: HPV16 E7-specific Th-clones: proliferation and IFNγ production. Type of test: cell-based, human. The conditions noted are these: for recognition by HLA-DQ2 restricted Th-clone, IFNγ secretion: Th-clone from HLA-DR3, DQ2 positive PBMC stimulated with peptide E722-56; for response of HLA-DR15 restricted Th-clone to pulsed APC: Th-clone from HLA-DR15, 4 and DQ6,7 positive PBMC raised against peptide E741-62. On the procedure:
Peptide-specific T-cell bulk cultures were generated as described previously (van der Burg et al., 1999) using either the E7 22-mer or E7 35-mer peptides. Specific proliferation was measured by incubation of 50,000 responders with an equal amount of irradiated (30Gy) APC (autologous PBMC unless indicated otherwise) and peptide or protein as indicated. E7-peptide and -protein-specific bulk T-cells were cloned by limiting dilution as described previously (van der Burg et al., 1999).
To determine specific excretion of cytokines, T-cell clones were stimulated by incubation of 50.000 T-cells with an equal amount of APC (30Gy) together with 10 μg/ml peptide, control peptide, E7 protein or control protein as indicated. After 24 hours of incubation, supernatant was harvested and replicate wells were pooled. Cytokine production was measured by Enzyme-Linked Immunosorbent Assay (ELISA) as described previously (van der Burg et al., 1999).

Test [2] relates to E7 49-57-specific CD8+ T cells. Nature of the test: Vaccination, H-2Db E7 49-57 tetramer staining of spleen cultures. The conditions noted are these: B6 mice. Type of test: in vivo, C57BL/6 mice. On the procedure: Immunization strategies. C57BL/6 mice were injected subcutaneously with either 50 μg E7^49-57 peptide or 150 μg E7^43-77 35-mer dissolved in PBS in order to achieve similar molar levels of the E7^49-57 CTL epitope in both cases. Combinations with various adjuvantia were tested. In the case of IFA and Montanide, the dissolved peptides were emulsified in 50% of these respective substances. ODN-CpG (50 μg/mouse), MPL (10 μg/mouse) and GM-CSF (4 μg/mouse) were all dissolved in PBS and mixed with the peptides before subcutaneous vaccination. The total injected volume was 200 μl/mouse.
T cell cultures. T cells were obtained from immunized mice by culturing spleen cells (5×10^6 cells/well of a 24-wells plate) in complete medium in the presence of 0.5×10^6 E7^49-57-expressing cells (tumor cell line 13.2) or, when indicated, in the presence of D1 cells.
Tetramer staining. Spleen cultures, stimulated with tumor cell line 13.2 for seven days, were transferred at an amount of 40×10^4 per well to 96-well V-bottom microtiter plates and washed twice with PBS/BSA 0.5%. Subsequently, PE-labelled E749-57-containing tetramer was added. After 30 minutes of incubation at room temperature, cells were washed twice with PBS/BSA 0.5% and incubated with FITC-labelled anti CD8b Ab for 30 minutes. Subsequently cells were washed twice in PBS/BSA 0.5%, suspended in PBS/BSA 0.5% containing Propidium Iodide (PI) (0.5) μg/ml) and transferred to tubes. Cell samples were analysed in a FACSCalibur flow cytometer (Becton Dickinson, San Jose, Calif., USA) using CellQuest software. A total of 20×10^4 events was analysed for fluorescence intensity. Debris was gated out using the PI staining and subsequently the CD8^+ fraction was gated. […] As a positive control the HPV16 E7 specific CTL clone 9.5 was used.

The mark [3] stands for this setting: HPV16-E2 peptides, >70 represents undetectable binding, read-out: Binding affinity DR4, IC50.
Setting [4] is: HPV16-E2 peptides, >70 represents undetectable binding, read-out: Binding affinity DR2, IC50.
Setting [5] is: HPV16-E2 peptides, >70 represents undetectable binding, read-out: Binding affinity DR1, IC50.
Where [6] appears, read: HPV16-E2 peptides, >70 represents undetectable binding, read-out: Binding affinity DR3, IC50.

For “SSTWHWTGHNVKHKSAIVTLTYDSEWQRDQ [E2 316-345]”, the IC50 was more than 70 µM at HLA-DR4 (DRB*0401) (setting [3]), 55 µM at HLA-DR2 (DRB1*0201) (setting [4]), 6 µM on HLA-DR1 (DRB*0101) (setting [5]) and 30 µM at HLA-DR3 (DRB*0301) (setting [6]). Moreover, in the test on healthy donor PBMC (donor D7), the “mean percentage of wells exceeding medium control + 3 * SD” value worked out at 94%.
Regarding “E2 166-195: 30-mer, amino acids 166-195 of HPV16 E2 protein (TYFVQFKDDAEKYSKNKVWEVHAGGQVILC; UniProt P03120 166-195, looked up, fragment)”, the “mean percentage of wells exceeding medium control + 3 * SD” value in the test with healthy donor PBMC (donor D3) came out at 94%; in the test with healthy donor PBMC (donor D5), 81%.
As to “E2 91-120: 30-mer, amino acids 91-120 of HPV16 E2 protein (KWTLQDVSLEVYLTAPTGCIKKHGYTVEVQ; UniProt P03120 91-120, looked up, fragment)”, the “mean percentage of wells exceeding medium control + 3 * SD” value in the test on healthy donor PBMC (donor D5) is 94%; with healthy donor PBMC (donor D8), 75%.
With “E7 protein: recombinant HPV16-E7 protein produced in E. coli [reference compound]”, in test [1], the “recognition by HLA-DQ2 restricted Th-clone, IFNγ secretion” value (“recognition” for short) is listed as “secreted IFNγ” and the “response of HLA-DR15 restricted Th-clone to pulsed APC” value was “specifically respond”.
Take SSEEEDEIDGPAGQAEPDRAHY [E7 31-52]: the IC50 on HLA-DR4 (DRB*0401) (HPV16-E7 22-mer peptides, >70 indicates undetectable binding, read-out: Binding DR4, IC50) is more than 70 µM; at HLA-DR2 (DRB1*0201) (HPV16-E7 22-mer peptides, >70 indicates undetectable binding, read-out: Binding DR2, IC50) it was more than 70 µM; on HLA-DR1 (DRB*0101) (read-out: Binding DR1, IC50), more than 70 µM; on HLA-DR3 (DRB*0301) (HPV16-E7 22-mer peptides, >70 indicates undetectable binding, read-out: Binding DR3, IC50), more than 70 µM.
“E7 50-62: core sequence, amino acids 50-62 of HPV16 E7 (AHYNIVTFCCKCD)”: the “response of HLA-DR15 restricted Th-clone to pulsed APC” value in test [1] was “core sequence recognized”.
Regarding “E7 22-56: long peptide, amino acids 22-56 of HPV16 E7 protein (LYCYEQLNDSSEEEDEIDGPAGQAEPDRAHYNIVT; UniProt P03129 22-56, looked up, fragment)”, the “recognition” value in test [1] is given as “secreted IFNγ”.
Turning to “E2 46-75: 30-mer, amino acids 46-75 of HPV16 E2 protein (AREMGFKHINHQVVPTLAVSKNKALQAIEL; UniProt P03120 46-75, looked up, fragment)”, the “mean percentage of wells exceeding medium control + 3 * SD” value in the test on healthy donor PBMC (donor D3) is listed as 88%; with healthy donor PBMC (donor D5) it was 81%; with healthy donor PBMC (donor D8), 94%.
As for “RAHYNIVTF (minimal 9 amino acid long CTL epitope) [E7 49-57, ID; NO, reference compound]”, the “E7 49-57-specific CD8+ T cell response” value in test [2] (prime-boost, IFA) was “comparable to that after one vaccination”. In addition, in test [2] (vaccinated once, IFA, responders), the “CD8+ T cells stained with tetramers” value was approximately 5%. The “mice responding to the vaccine (tetramer staining)” value in test [2] (vaccinated once, IFA, spleens day 10) is 3 out of 9. Moreover, the number of responders in test [2] (vaccinated once, MPL) is 4/9; in test [2] (vaccinated once, ODN-CpG) it was 4/12. Also, the “E7 49-57-specific CTL response” value in test [2] (vaccinated once, Montanide adjuvant) is “no responses were observed”; in test [2] (vaccinated once, combined with anti-CD40 antibody or GM-CSF) it was “no or minimal CTL responses”.
For `CC[C@H](C)[C@H](NC(=O)[C@H](CCCNC(=N)N)NC(=O)CNC(=O)[C@H](CCCCN)NC(=O)[C@H](Cc1c[nH]cn1)NC(=O)[C@H](CO)NC(=O)[C@H](CO)NC(=O)[C@H](CC(N)=O)NC(=O)[C@@H](N)Cc1ccccc1)C(=O)N[C@@H](CC(N)=O)C(=O)N[C@@H](CS)C(=O)N[C@@H](CC(N)=O)C(=O)N[C@@H](CO)C(=O)N[C@@H](CC(N)=O)C(=O)N[C@H](C(=O)N[C@H](C(=O)N1CCC[C@H]1C(=O)N[C@H](C(=O)N[C@H](C(=O)N[C@@H](Cc1c[nH]cn1)C(=O)N[C@@H](CC(C)C)C(=O)N[C@@H](CCCCN)C(=O)NCC(=O)N[C@@H](CC(=O)O)C(=O)N[C@@H](C)C(=O)N[C@@H](CC(N)=O)C(=O)N[C@H](C(=O)N[C@@H](CC(C)C)C(=O)N[C@@H](CCCCN)C(=O)N[C@@H](CS)C(=O)O)[C@@H](C)O)C(C)C)[C@@H](C)CC)[C@@H](C)O)[C@@H](C)O` [E2 271-300] (H-FNSSHKGRINCNSNTTPIVHLKGDANTLKC-OH; N-terminus and C-terminus assumed), the IC50 on HLA-DR4 (DRB*0401) (setting [3]) is more than 70 µM; on HLA-DR2 (DRB1*0201) (setting [4]), 65 µM; on HLA-DR3 (DRB*0301) (setting [6]), 37 µM. Moreover, the “mean percentage of wells exceeding medium control + 3 * SD” value in the test on healthy donor PBMC (donor D8) stood at 88%.
For the compound “AIVTLTYDSEWQRDQFLSQVKIPKTITVSTGFMSI [E2 331-365]”, the IC50 on HLA-DR4 (DRB*0401) (setting [3]) was determined as 15 µM; at HLA-DR2 (DRB1*0201) (setting [4]), 20 µM; on HLA-DR1 (DRB*0101) (setting [5]), 8 µM; on HLA-DR3 (DRB*0301) (setting [6]), 10 µM. In addition, the “mean percentage of wells exceeding medium control + 3 * SD” value with healthy donor PBMC (donor D3) is reported as 100%; in the test with healthy donor PBMC (donor D7) it was 75%.
As to “E7 35-55: peptide, amino acids 35-55 of HPV16 E7 (EDEIDGPAGQAEPDRAHYNIV; UniProt P03129 35-55, looked up, fragment)”, the “recognition” value in test [1] is given as “recognized”.
Turning to “E7 35-50: core sequence, amino acids 35-50 of HPV16 E7 (EDEIDGPAGQAEPDRA)”, the “recognition” value in test [1] was “recognized the core sequence”.
Take tetanus toxoid [TT, reference compound]: the “mean percentage of wells exceeding medium control + 3 * SD” value in the test on healthy donor PBMC (donor D1), in the test on healthy donor PBMC (donor D2), in the test on healthy donor PBMC (donor D3), with healthy donor PBMC (donor D4), in the test on healthy donor PBMC (donor D5) and in the test with healthy donor PBMC (donor D6) was 100% in each case. Moreover, the “mean percentage of wells exceeding medium control + 3 * SD” value with healthy donor PBMC (donor D7) and with healthy donor PBMC (donor D8) was 100% in each case. Further, the “mean stimulation index of all test wells of both assays” value stood at 25 in the test on healthy donor PBMC (donor D3), 139 with healthy donor PBMC (donor D6) and 59 in the test on healthy donor PBMC (donor D8). Further, the “stimulation index (SI)” value with healthy donor PBMC (donors #3, 4, 5 and 7) was 13.3-25; in the test on healthy donor PBMC (donors #3 and 6), not below 100.
On to “E7 30-50: peptide, amino acids 30-50 of HPV16 E7 (DSSEEEDEIDGPAGQAEPDRA; UniProt P03129 30-50, looked up, fragment)”, for which the “recognition” value in test [1] was “recognized”.
As for “E2 31-60: 30-mer, amino acids 31-60 of HPV16 E2 protein (DYWKHMRLECAIYYKAREMGFKHINHQVVP; UniProt P03120 31-60, looked up, fragment)”, the results for the “mean percentage of wells exceeding medium control + 3 * SD” value in the test on healthy donor PBMC (donor D3) and in the test on healthy donor PBMC (donor D8) were 81% and 88%, respectively.
Regarding “E2 151-180: 30-mer, amino acids 151-180 of HPV16 E2 protein (QVDYYGLYYVHEGIRTYFVQFKDDAEKYSK; UniProt P03120 151-180, looked up, fragment)”, the “mean percentage of wells exceeding medium control + 3 * SD” value in the test with healthy donor PBMC (donor D3) and in the test with healthy donor PBMC (donor D8) was 81% throughout.

As a reminder, the IC50 is the concentration that gives 50% inhibition.
